Assay results taken from paper PMC10041525, “New Dual Inhibitors of Bacterial Topoisomerases with Broad-Spectrum Antibacterial Activity and In Vivo Efficacy against Vancomycin-Intermediate Staphylococcus aureus” (Journal of Medicinal Chemistry, 2023).

System: 100 A. baumannii strains (50 MDR, 50 non-MDR)
Test: MIC broth microdilution at IHMA Europe, panel of 100 strains
Format: cell-based

Measured: MIC

piperacillin/tazobactam [Piperacillin Tazobactam]
>128 µg/mL: A. baumannii IHMA 1769782, Israel 2018, MDR | A. baumannii IHMA 1791877, Israel 2018, MDR | A. baumannii IHMA 1792961, Jordan 2018, MDR | A. baumannii IHMA 1814276, Lebanon 2018, MDR | A. baumannii IHMA 1815198, Kuwait 2018, MDR | A. baumannii IHMA 1815856, Israel 2018, MDR | A. baumannii IHMA 1849819, Kuwait 2018, MDR | A. baumannii IHMA 1926288, Qatar 2018, MDR | A. baumannii IHMA 1963732, Turkey 2019, MDR | A. baumannii IHMA 1971673, Latvia 2019, MDR | A. baumannii IHMA 1983151, Greece 2019, MDR | A. baumannii IHMA 1984665, Lithuania 2019, MDR | A. baumannii IHMA 1986738, Turkey 2019, MDR | A. baumannii IHMA 1987162, Croatia 2019, MDR | A. baumannii IHMA 1993615, Turkey 2019, MDR | A. baumannii IHMA 1994284, Italy 2019, MDR | A. baumannii IHMA 2003279, Turkey 2019, MDR | A. baumannii IHMA 2020360, Croatia 2019, MDR | A. baumannii IHMA 2031524, Greece 2019, MDR | A. baumannii IHMA 2035089, Serbia 2019, MDR | A. baumannii IHMA 2038976, Hungary 2019, MDR | A. baumannii IHMA 2051503, Serbia 2019, MDR | A. baumannii IHMA 2154584, Israel 2020, MDR | A. baumannii IHMA 2155340, Kenya 2020, MDR | A. baumannii IHMA 2156634, Turkey 2020, MDR | A. baumannii IHMA 2156709, Turkey 2020, MDR | A. baumannii IHMA 2177232, Lithuania 2020, MDR | A. baumannii IHMA 2177489, Lithuania 2020, MDR | A. baumannii IHMA 2180142, Malaysia 2020, MDR | A. baumannii IHMA 2181370, Morocco 2020, MDR | A. baumannii IHMA 2183729, Argentina 2020, MDR | A. baumannii IHMA 2193375, Venezuela 2020, MDR | A. baumannii IHMA 2193607, Venezuela 2020, MDR
16 µg/mL: A. baumannii IHMA 1830924, United Kingdom 2018, Non-MDR | A. baumannii IHMA 1977077, Kuwait 2019, Non-MDR
≤0.25 µg/mL: A. baumannii IHMA 1769393, Lithuania 2018, Non-MDR | A. baumannii IHMA 1769910, Israel 2018, Non-MDR | A. baumannii IHMA 1790317, Czech Republic 2018, Non-MDR | A. baumannii IHMA 1790916, Romania 2018, Non-MDR | A. baumannii IHMA 1795669, Tunisia 2018, Non-MDR | A. baumannii IHMA 1821468, South Africa 2018, Non-MDR | A. baumannii IHMA 1829500, Georgia 2018, Non-MDR | A. baumannii IHMA 1849829, Kuwait 2018, Non-MDR | A. baumannii IHMA 1857118, Slovenia 2018, Non-MDR | A. baumannii IHMA 1863631, France 2018, Non-MDR | A. baumannii IHMA 1870054, United States 2018, Non-MDR | A. baumannii IHMA 1884428, Italy 2018, Non-MDR | A. baumannii IHMA 1884990, Germany 2018, Non-MDR | A. baumannii IHMA 1900538, Turkey 2018, Non-MDR | A. baumannii IHMA 1913773, Kenya 2018, Non-MDR | A. baumannii IHMA 1926285, Qatar 2018, Non-MDR | A. baumannii IHMA 1967860, Spain 2019, Non-MDR | A. baumannii IHMA 1986678, Turkey 2019, Non-MDR | A. baumannii IHMA 1995161, Czech Republic 2019, Non-MDR | A. baumannii IHMA 2019315, Romania 2019, Non-MDR | A. baumannii IHMA 2031511, Greece 2019, Non-MDR | A. baumannii IHMA 2034657, Tunisia 2019, Non-MDR | A. baumannii IHMA 2058329, Slovenia 2019, Non-MDR | A. baumannii IHMA 2065587, France 2019, Non-MDR | A. baumannii IHMA 2129256, Qatar 2019, Non-MDR | A. baumannii IHMA 2157614, Australia 2020, Non-MDR | A. baumannii IHMA 2183849, Argentina 2020, Non-MDR | A. baumannii IHMA 2184382, Japan 2020, Non-MDR | A. baumannii IHMA 2193485, Venezuela 2020, Non-MDR
8 µg/mL: A. baumannii IHMA 1957343, Portugal 2019, Non-MDR | A. baumannii IHMA 1975075, Israel 2019, Non-MDR
2 µg/mL: A. baumannii IHMA 2178574, Ukraine 2020, Non-MDR | A. baumannii IHMA 2180134, Malaysia 2020, Non-MDR
0.5 µg/mL: A. baumannii IHMA 2014931, South Africa 2019, Non-MDR
4 µg/mL: A. baumannii IHMA 1997936, Morocco 2019, Non-MDR | A. baumannii IHMA 1999178, Belgium 2019, Non-MDR | A. baumannii IHMA 2014367, Jordan 2019, Non-MDR | A. baumannii IHMA 2035134, Serbia 2019, Non-MDR | A. baumannii IHMA 2099294, United Kingdom 2019, Non-MDR
